# From ChEMBL document CHEMBL2203205 (Eur J Med Chem, 2012)
# Columns and labels:
# Nitric oxide synthase 1 = Nitric oxide synthase 1 (Homo sapiens, UniProt P29475); assay: Inhibition of recombinant human nNOS expressed in baculovirus-infected Sf9 cells assessed as conversion of [3H]-larginine to [3H]-L-citrulline preincubated for 15 mins measured after 45 mins by liquid scintillation counting
# Nitric oxide synthase 3 = Nitric oxide synthase 3 (Homo sapiens, UniProt P29474); assay: Inhibition of recombinant human eNOS expressed in baculovirus-infected Sf9 cells assessed as conversion of [3H]-larginine to [3H]-L-citrulline preincubated for 15 mins measured after 45 mins by liquid scintillation counting
# Chain of Nitric oxide synthase 3 (P29474 whole entry, looked up): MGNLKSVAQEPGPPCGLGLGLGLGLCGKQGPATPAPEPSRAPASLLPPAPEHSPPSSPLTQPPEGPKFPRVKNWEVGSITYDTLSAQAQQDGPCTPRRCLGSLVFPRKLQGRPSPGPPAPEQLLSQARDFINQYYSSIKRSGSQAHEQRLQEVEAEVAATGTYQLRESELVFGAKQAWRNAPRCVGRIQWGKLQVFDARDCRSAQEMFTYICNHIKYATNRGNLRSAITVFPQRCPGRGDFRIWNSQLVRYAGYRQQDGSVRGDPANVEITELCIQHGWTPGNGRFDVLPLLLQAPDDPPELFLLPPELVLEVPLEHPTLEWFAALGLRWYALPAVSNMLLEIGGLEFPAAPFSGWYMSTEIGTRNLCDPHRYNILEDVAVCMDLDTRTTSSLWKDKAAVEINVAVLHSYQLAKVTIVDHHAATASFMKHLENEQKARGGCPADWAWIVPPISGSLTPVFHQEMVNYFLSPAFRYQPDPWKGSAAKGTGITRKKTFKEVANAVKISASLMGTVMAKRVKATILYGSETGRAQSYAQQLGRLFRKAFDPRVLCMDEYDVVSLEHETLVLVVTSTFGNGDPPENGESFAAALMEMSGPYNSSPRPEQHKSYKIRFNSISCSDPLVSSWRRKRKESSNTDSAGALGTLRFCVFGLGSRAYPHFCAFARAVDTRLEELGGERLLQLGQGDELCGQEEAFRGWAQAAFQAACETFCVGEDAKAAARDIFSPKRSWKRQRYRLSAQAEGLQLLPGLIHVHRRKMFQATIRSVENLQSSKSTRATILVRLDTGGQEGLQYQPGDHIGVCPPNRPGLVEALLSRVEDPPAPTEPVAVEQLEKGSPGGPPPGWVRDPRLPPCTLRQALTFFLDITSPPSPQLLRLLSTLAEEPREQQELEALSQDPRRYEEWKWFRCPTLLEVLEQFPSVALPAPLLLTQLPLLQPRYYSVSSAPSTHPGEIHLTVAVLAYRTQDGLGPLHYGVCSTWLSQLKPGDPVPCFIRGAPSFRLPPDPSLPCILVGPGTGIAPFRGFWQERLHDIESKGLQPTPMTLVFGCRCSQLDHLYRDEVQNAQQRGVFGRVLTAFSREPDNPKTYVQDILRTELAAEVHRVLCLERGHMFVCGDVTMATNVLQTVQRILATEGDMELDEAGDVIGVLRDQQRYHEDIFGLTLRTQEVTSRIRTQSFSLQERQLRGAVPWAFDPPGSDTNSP
# [1] = biological target: Nitric oxide synthase, inducible (Homo sapiens, UniProt P35228); assay: Inhibition of recombinant human iNOS expressed in baculovirus-infected Sf9 cells assessed as conversion of [3H]-larginine to [3H]-L-citrulline preincubated for 15 mins measured after 45 mins by liquid scintillation counting
# Chain of Nitric oxide synthase, inducible (P35228 whole entry, looked up): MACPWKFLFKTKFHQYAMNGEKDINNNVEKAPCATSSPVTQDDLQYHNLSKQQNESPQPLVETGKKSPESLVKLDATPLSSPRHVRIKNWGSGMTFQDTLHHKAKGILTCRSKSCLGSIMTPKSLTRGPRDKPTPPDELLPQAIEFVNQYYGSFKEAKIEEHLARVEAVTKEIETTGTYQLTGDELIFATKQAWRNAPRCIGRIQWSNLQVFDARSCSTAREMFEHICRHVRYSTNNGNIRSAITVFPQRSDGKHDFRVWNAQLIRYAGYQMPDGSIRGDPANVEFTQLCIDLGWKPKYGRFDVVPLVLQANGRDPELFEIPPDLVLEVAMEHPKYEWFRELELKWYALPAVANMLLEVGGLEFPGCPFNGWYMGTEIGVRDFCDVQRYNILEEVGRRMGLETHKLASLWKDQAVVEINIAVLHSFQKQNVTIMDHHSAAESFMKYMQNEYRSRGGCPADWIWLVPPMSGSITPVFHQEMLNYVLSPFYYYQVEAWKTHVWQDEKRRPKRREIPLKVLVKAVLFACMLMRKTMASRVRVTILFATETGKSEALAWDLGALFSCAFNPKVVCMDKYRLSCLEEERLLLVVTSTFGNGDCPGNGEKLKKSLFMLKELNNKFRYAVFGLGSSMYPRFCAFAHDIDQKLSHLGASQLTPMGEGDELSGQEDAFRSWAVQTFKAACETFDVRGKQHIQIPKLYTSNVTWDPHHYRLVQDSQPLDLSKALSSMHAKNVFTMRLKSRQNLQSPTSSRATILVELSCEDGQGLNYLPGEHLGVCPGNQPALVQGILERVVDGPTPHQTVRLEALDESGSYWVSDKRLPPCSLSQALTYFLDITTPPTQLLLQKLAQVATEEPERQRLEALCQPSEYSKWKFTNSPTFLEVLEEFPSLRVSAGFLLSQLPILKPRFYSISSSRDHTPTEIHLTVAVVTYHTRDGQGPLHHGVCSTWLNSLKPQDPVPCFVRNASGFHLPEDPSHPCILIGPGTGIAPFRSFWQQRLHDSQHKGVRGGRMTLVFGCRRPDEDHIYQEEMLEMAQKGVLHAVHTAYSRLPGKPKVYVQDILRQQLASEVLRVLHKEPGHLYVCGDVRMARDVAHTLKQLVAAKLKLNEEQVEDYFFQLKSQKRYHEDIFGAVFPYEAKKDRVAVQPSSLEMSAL
# [2] = biological target: Substance-P receptor (Homo sapiens) (UniProt P25103); conditions: U-373MG ATCC
# Chain of Substance-P receptor (Homo sapiens) (P25103 whole entry): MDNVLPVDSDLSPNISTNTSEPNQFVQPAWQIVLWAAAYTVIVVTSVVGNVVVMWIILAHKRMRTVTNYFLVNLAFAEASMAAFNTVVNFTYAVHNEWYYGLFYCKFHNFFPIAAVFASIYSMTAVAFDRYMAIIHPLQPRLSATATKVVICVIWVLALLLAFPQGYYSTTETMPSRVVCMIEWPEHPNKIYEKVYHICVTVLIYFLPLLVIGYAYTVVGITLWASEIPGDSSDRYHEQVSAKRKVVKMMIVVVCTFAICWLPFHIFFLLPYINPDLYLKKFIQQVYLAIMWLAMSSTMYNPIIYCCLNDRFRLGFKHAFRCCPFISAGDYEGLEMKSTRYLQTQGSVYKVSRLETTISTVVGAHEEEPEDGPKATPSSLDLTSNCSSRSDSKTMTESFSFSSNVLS
# Description: Displacement of [125I]BH-SP from NK1 receptor in human U-373MG cells at 10 uM after 60 mins
# Chain of Nitric oxide synthase 1 (P29475 whole entry): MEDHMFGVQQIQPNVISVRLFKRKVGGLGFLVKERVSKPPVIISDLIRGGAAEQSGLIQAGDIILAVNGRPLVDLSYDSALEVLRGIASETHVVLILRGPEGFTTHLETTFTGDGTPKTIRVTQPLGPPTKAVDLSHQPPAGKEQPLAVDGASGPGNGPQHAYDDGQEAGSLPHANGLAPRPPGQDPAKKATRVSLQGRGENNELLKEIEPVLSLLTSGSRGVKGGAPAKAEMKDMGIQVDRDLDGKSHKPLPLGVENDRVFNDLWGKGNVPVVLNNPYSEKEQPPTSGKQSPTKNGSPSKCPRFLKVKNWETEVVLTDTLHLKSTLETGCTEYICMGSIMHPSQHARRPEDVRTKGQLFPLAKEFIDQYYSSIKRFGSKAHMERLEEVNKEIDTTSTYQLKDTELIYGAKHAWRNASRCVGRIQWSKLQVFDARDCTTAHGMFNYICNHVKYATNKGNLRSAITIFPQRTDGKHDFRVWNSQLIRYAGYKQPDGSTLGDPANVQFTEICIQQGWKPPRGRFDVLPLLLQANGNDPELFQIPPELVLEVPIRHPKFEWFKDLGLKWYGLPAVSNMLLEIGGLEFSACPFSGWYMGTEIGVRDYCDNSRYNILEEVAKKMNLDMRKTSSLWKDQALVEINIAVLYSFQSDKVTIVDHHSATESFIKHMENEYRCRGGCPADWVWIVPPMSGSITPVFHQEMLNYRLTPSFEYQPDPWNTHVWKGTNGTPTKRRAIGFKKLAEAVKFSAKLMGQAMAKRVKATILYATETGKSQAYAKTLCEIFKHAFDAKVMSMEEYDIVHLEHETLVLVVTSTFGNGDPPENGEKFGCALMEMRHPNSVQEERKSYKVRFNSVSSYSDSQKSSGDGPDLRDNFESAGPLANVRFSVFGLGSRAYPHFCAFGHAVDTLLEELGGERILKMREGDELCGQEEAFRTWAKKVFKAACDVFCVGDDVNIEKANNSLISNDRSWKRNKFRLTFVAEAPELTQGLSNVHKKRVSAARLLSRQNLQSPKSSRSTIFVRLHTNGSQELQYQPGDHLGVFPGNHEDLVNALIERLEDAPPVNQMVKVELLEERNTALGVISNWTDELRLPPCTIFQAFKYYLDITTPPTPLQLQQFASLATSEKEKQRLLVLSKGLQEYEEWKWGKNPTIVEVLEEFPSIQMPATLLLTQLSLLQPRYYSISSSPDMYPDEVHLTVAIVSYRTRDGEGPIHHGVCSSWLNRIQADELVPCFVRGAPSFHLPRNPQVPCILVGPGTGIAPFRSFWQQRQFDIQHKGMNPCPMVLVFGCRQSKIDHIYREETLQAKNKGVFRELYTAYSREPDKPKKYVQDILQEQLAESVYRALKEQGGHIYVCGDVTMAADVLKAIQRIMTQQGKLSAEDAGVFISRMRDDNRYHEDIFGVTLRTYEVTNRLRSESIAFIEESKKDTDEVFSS
structure (smiles),measurement,setting,value
N=C(Nc1ccc2c(c1)CCN2CCN1CCCC1)c1cccs1,IC50,Nitric oxide synthase 1,0.12 µM
same,IC50,Nitric oxide synthase 3,37.3 µM
same,IC50,[1],0.41 µM
N=C(Nc1ccc2c(c1)CCN2C1CCCNC1)c1cccs1 (racemic),IC50,Nitric oxide synthase 1,0.33 µM
same,IC50,Nitric oxide synthase 3,94 µM
same,IC50,[1],52.2 µM
"CC1CC(N2CCc3cc(NC(=N)c4cccs4)ccc32)CCN1 (single isomer, unassigned; (+))",IC50,Nitric oxide synthase 1,0.91 µM
same,IC50,Nitric oxide synthase 3,51.7 µM
same,IC50,[1],1.8 µM
CC1CC(N2CCc3cc(NC(=N)c4cccs4)ccc32)CCN1 (stereo in doubt),IC50,Nitric oxide synthase 1,0.71 µM
same,IC50,Nitric oxide synthase 3,53.7 µM
same,IC50,[1],1.09 µM
N=C(Nc1ccc2c(c1)CCN2C1CCNCC1)c1cccs1 [listing 1 of 2 here],IC50,Nitric oxide synthase 1,0.11 µM
same,IC50,Nitric oxide synthase 3,40.5 µM
same,IC50,[1],415 µM
N=C(Nc1ccc2c(c1)CCN2CCNCCO)c1cccs1,IC50,Nitric oxide synthase 1,0.35 µM
same,IC50,Nitric oxide synthase 3,10.1 µM
N=C(Nc1ccc2c(c1)CCN2C1CCN(CCO)CC1)c1cccs1,IC50,Nitric oxide synthase 1,0.16 µM
same,IC50,Nitric oxide synthase 3,39.3 µM
same,IC50,[1],1.58 µM
CNC1CCC(N2CCc3cc(NC(=N)c4cccs4)ccc32)CC1 (cis isomer),IC50,Nitric oxide synthase 1,0.2 µM
same,IC50,[1],4.08 µM
CNC1CCC(N2CCc3cc(NC(=N)c4cccs4)ccc32)CC1 (trans isomer),IC50,Nitric oxide synthase 1,0.1 µM
same,IC50,[1],4.87 µM
N=C(Nc1ccc2c(c1)CCN2C1CCNCC1)c1cccs1 [listing 2 of 2 here],inhibition,[2],12%
CN(C)CCN1CCc2cc(NC(=N)c3cccs3)ccc21,IC50,Nitric oxide synthase 1,0.04 µM
same,IC50,Nitric oxide synthase 3,11.4 µM
same,IC50,[1],4.07 µM
N=C(Nc1ccc2c(c1)CCN2C(=O)CN1CCCC1)c1cccs1,IC50,Nitric oxide synthase 1,0.62 µM
same,IC50,Nitric oxide synthase 3,10.5 µM
same,IC50,[1],0.77 µM
CN1CCC(N2CCc3cc(NC(=N)c4cccs4)ccc32)CC1,IC50,Nitric oxide synthase 1,0.2 µM
same,IC50,Nitric oxide synthase 3,58.2 µM
same,IC50,[1],4.67 µM
CC1CC(N2CCc3cc(NC(=N)c4cccs4)ccc32)CCN1 (trans isomer),IC50,Nitric oxide synthase 1,0.37 µM
same,IC50,Nitric oxide synthase 3,36.7 µM
same,IC50,[1],4.75 µM
CC1CC(N2CCc3cc(NC(=N)c4cccs4)ccc32)CCN1 (cis isomer),IC50,Nitric oxide synthase 1,0.69 µM
same,IC50,Nitric oxide synthase 3,124 µM
same,IC50,[1],1.17 µM
